Laboratory results taken from ChEMBL document CHEMBL1268979, “Discovery of highly potent and efficacious MC4R agonists with spiroindane N-Me-1,2,4-triazole privileged structures for the treatment of obesity” (Bioorg Med Chem Lett, 2010).
Values belong to the compound of their own block, whether it stands above or below them. Activity calls are given as the source filed them. No cut-off for these calls is given here.

Columns and labels:
Mus musculus [1] = assay: Reduction in food intake in DIO mouse obesity model at 6 mg/kg, po after 4 hrs; assay type: functional
Mus musculus [2] = assay: Reduction in food intake in DIO mouse obesity model at 3 mg/kg, po after 4 hrs; assay type: functional
[3] = Agonist activity at human MC1b receptor; assay type: functional
Mus musculus [4] = assay: Reduction in food intake in MC4R/3R knockout mouse at 10 mg/kg, po after 18 hrs; assay type: functional
[5] = Clearance in Sprague-Dawley rat at 1 mg/kg, iv and 4 mg/kg, po; assay type: ADME, organism-based; details: in vivo
Mus musculus [6] = assay: Reduction in food intake in MC4R/3R knockout mouse at 10 mg/kg, po after 4 hrs; assay type: functional
Mus musculus [7] = assay: Reduction in food intake in wild type mouse at 20 mg/kg, po after 18 hrs; assay type: functional
Mus musculus [8] = assay: Reduction in food intake in DIO mouse obesity model at 20 mg/kg, po after 4 hrs; assay type: functional
Mus musculus [9] = assay: Reduction in food intake in DIO mouse obesity model at 20 mg/kg, po after 18 hrs; assay type: functional
Melanocortin receptor 4 [10] = target: T1, Melanocortin receptor 4 (Homo sapiens, UniProt P32245); assay: Agonist activity at human MC4 receptor assessed as receptor activation; assay type: functional
T1 sequence (P32245 whole entry): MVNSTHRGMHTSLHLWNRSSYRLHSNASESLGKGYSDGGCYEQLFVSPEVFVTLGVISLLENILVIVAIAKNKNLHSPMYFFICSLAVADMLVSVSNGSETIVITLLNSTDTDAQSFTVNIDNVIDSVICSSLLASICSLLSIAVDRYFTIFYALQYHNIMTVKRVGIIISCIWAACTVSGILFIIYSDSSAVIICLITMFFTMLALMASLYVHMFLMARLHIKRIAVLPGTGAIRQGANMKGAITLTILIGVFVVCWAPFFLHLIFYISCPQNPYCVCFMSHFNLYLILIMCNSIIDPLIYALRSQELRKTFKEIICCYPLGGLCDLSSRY

Mus musculus [11] = assay: Reduction in food intake in wild type mouse at 20 mg/kg, po after 4 hrs; assay type: functional
Melanocortin receptor 4 [12] = target: T1, Melanocortin receptor 4; assay: Agonist activity at human MC4 receptor; assay type: functional
Mus musculus [13] = assay: Reduction in food intake in DIO mouse obesity model at 3 mg/kg, po after 18 hrs; assay type: functional
Mus musculus [14] = assay: Reduction in food intake in DIO mouse obesity model at 6 mg/kg, po after 18 hrs; assay type: functional
Mus musculus [15] = assay: Reduction in food intake in wild type mouse at 10 mg/kg, po after 4 hrs; assay type: functional
[16] = Oral bioavailability in Sprague-Dawley rat at 1 mg/kg, iv and 4 mg/kg, po; assay type: ADME, organism-based; details: in vivo
Mus musculus [17] = assay: Reduction in food intake in wild type mouse at 10 mg/kg, po after 18 hrs; assay type: functional
Homo sapiens = species on record: Homo sapiens; assay: Agonist activity at human MC1b receptor assessed as receptor activation; assay type: functional; design: concentration or dose not given beside the values
Melanocortin receptor 4 [18] = target: T1, Melanocortin receptor 4; assay: Inhibition of human MC4 receptor
[19] = Volume of distribution in Sprague-Dawley rat at 1 mg/kg, iv and 4 mg/kg, po; assay type: ADME, organism-based; details: in vivo
[20] = Half life in Sprague-Dawley rat at 1 mg/kg, iv and 4 mg/kg, po; assay type: ADME, organism-based; details: in vivo
Mus musculus [21] = assay: Reduction in food intake in DIO mouse obesity model at 1 mg/kg, po measured for 18 hrs; assay type: functional
Mus musculus [22] = assay: Reduction in body weight in DIO mouse obesity model at 6 mg/kg, po after 4 hrs; assay type: functional, organism-based; design: dose 6 mg/kg
Mus musculus [23] = assay: Reduction in body weight in DIO mouse obesity model at 20 mg/kg, po after 4 hrs; assay type: functional, organism-based; design: dose 20 mg/kg
Mus musculus [24] = assay: Reduction in body weight in DIO mouse obesity model at 3 mg/kg, po after 4 hrs; assay type: functional, organism-based; design: dose 3 mg/kg
Mus musculus [25] = assay: Reduction in food intake in DIO mouse obesity model at 10 mg/kg, po measured for 18 hrs; assay type: functional
Mus musculus [26] = assay: Reduction in food intake in DIO mouse obesity model at 3 mg/kg, po measured for 18 hrs; assay type: functional

Compound: Cc1cc2c(cc1Cl)C1(CCN(C(=O)[C@@H]3CN(C(C)(C)C)C[C@H]3c3ccc(F)cc3F)CC1)CC2C(C)(C)c1nnco1 (stereo in doubt; 5d1) [listing 1 of 2 here]
EC50 (Melanocortin receptor 4 [12]): 211 nM | IC50 (Melanocortin receptor 4 [18]): 49 nM

Compound: Cc1cc2c(cc1Cl)C1(CCN(C(=O)[C@@H]3CN(C4CCOCC4)C[C@H]3c3ccc(F)cc3F)CC1)C[C@@H]2C(C)(C)c1ncnn1C
inhibition in vivo at 6 mg/kg (Mus musculus [1]): 37% | inhibition in vivo at 3 mg/kg (Mus musculus [2]): 19% | EC50 [3]: 708 nM | clearance [5]: 37 mL/min/kg | inhibition in vivo at 10 mg/kg (Mus musculus [6]): 20% | inhibition in vivo at 20 mg/kg (Mus musculus [7]): 13% | inhibition in vivo at 20 mg/kg (Mus musculus [8]): 31% | inhibition in vivo at 20 mg/kg (Mus musculus [9]): 11% | Activity (Melanocortin receptor 4 [10]): 105% | inhibition in vivo at 20 mg/kg (Mus musculus [11]): 28% | EC50 (Melanocortin receptor 4 [12]): 0.9 nM | inhibition in vivo at 6 mg/kg (Mus musculus [14]): 18% | inhibition in vivo at 10 mg/kg (Mus musculus [15]): 40% | bioavailability [16]: 35% | inhibition in vivo at 10 mg/kg (Mus musculus [17]): 22% | Activity (Homo sapiens): 54% | IC50 (Melanocortin receptor 4 [18]): 0.84 nM | Vd [19]: 10 L/kg | half-life [20]: 3.4 h

Compound: Cc1cc2c(cc1Cl)C1(CCN(C(=O)[C@@H]3CN(C(C)(C)C)C[C@H]3c3ccc(F)cc3F)CC1)CC2C(C)(C)c1nnco1 (stereo in doubt; 5d2) [listing 1 of 2 here]
EC50 [3]: 138 nM | EC50 (Melanocortin receptor 4 [12]): 2.2 nM | IC50 (Melanocortin receptor 4 [18]): 1.3 nM

Compound: Cc1nnc(C(C)(C)[C@H]2CC3(CCN(C(=O)[C@@H]4CN(C(C)(C)C)C[C@H]4c4ccc(F)cc4F)CC3)c3cc(Cl)c(C)cc32)o1
EC50 [3]: 1140 nM | Activity (Melanocortin receptor 4 [10]): 97% | EC50 (Melanocortin receptor 4 [12]): 2.3 nM | Activity (Homo sapiens): 88% | IC50 (Melanocortin receptor 4 [18]): 1.9 nM

Compound: Cc1cc2c(cc1Cl)C1(CCN(C(=O)[C@@H]3CN(C(C)(C)C)C[C@H]3c3ccc(F)cc3F)CC1)CC2C(C)(C)c1cnn[nH]1 (stereo not given in full)
EC50 [3]: 1040 nM | Activity (Melanocortin receptor 4 [10]): 82% | EC50 (Melanocortin receptor 4 [12]): 4.2 nM | Activity (Homo sapiens): 31% | IC50 (Melanocortin receptor 4 [18]): 16 nM

Compound: Cc1cc2c(cc1Cl)C1(CCN(C(=O)[C@@H]3CCN(C(C)(C)C)C[C@H]3c3ccc(F)cc3F)CC1)C[C@@H]2C(C)(C)c1ncnn1C
inhibition in vivo at 6 mg/kg (Mus musculus [1]): 47% | inhibition in vivo at 3 mg/kg (Mus musculus [2]): 29% | EC50 [3]: 1050 nM | inhibition in vivo at 10 mg/kg (Mus musculus [4]): 19% | clearance [5]: 22 mL/min/kg | inhibition in vivo at 10 mg/kg (Mus musculus [6]): 40% | inhibition in vivo at 20 mg/kg (Mus musculus [7]): 17% | inhibition in vivo at 20 mg/kg (Mus musculus [8]): 30% | inhibition in vivo at 20 mg/kg (Mus musculus [9]): 15% | Activity (Melanocortin receptor 4 [10]): 96% | inhibition in vivo at 20 mg/kg (Mus musculus [11]): 24% | EC50 (Melanocortin receptor 4 [12]): 2.4 nM | inhibition in vivo at 3 mg/kg (Mus musculus [13]): 8% | inhibition in vivo at 6 mg/kg (Mus musculus [14]): 31% | inhibition in vivo at 10 mg/kg (Mus musculus [15]): 46% | bioavailability [16]: 86% | inhibition in vivo at 10 mg/kg (Mus musculus [17]): 37% | Activity (Homo sapiens): 37% | IC50 (Melanocortin receptor 4 [18]): 1.7 nM | Vd [19]: 19 L/kg | half-life [20]: 11 h

Now from value to compound, other results behind:

EC50 [3]: 125 nM | clearance [5]: 6.7 mL/min/kg | Activity (Melanocortin receptor 4 [10]): 106% | EC50 (Melanocortin receptor 4 [12]): 0.23 nM | bioavailability [16]: 26% | Activity (Homo sapiens): 80% | IC50 (Melanocortin receptor 4 [18]): 0.41 nM | Vd [19]: 5 L/kg | half-life [20]: 9.4 h
Compound: Cc1cc2c(cc1Cl)C1(CCN(C(=O)[C@@H]3CN(C(C)(C)C)C[C@H]3c3ccc(F)cc3F)CC1)C[C@@H]2C(C)(C)c1ncnn1C
inhibition in vivo at 6 mg/kg (Mus musculus [1]): 51% | inhibition in vivo at 3 mg/kg (Mus musculus [2]): 29% | inhibition in vivo at 10 mg/kg (Mus musculus [4]): 43% | inhibition in vivo at 10 mg/kg (Mus musculus [6]): 67% | inhibition in vivo at 20 mg/kg (Mus musculus [7]): 17% | inhibition in vivo at 20 mg/kg (Mus musculus [8]): 38% | inhibition in vivo at 20 mg/kg (Mus musculus [9]): 18% | inhibition in vivo at 20 mg/kg (Mus musculus [11]): 24% | inhibition in vivo at 3 mg/kg (Mus musculus [13]): 16% | inhibition in vivo at 6 mg/kg (Mus musculus [14]): 27% | inhibition in vivo at 10 mg/kg (Mus musculus [15]): 47% | inhibition in vivo at 10 mg/kg (Mus musculus [17]): 32%

EC50 [3]: 1650 nM | Activity (Melanocortin receptor 4 [10]): 99% | EC50 (Melanocortin receptor 4 [12]): 48 nM | Activity (Homo sapiens): 57% | IC50 (Melanocortin receptor 4 [18]): 9.7 nM
Compound: Cc1cnc(C(C)(C)[C@H]2CC3(CCN(C(=O)[C@@H]4CN(C(C)(C)C)C[C@H]4c4ccc(F)cc4F)CC3)c3cc(Cl)c(C)cc32)o1

EC50 [3]: 855 nM | Activity (Melanocortin receptor 4 [10]): 71% | EC50 (Melanocortin receptor 4 [12]): 14 nM | Activity (Homo sapiens): 46% | IC50 (Melanocortin receptor 4 [18]): 5.7 nM
Compound: Cc1nc(C(C)(C)C2CC3(CCN(C(=O)[C@@H]4CN(C(C)(C)C)C[C@H]4c4ccc(F)cc4F)CC3)c3cc(Cl)c(C)cc32)no1 (stereo not given in full)

EC50 [3]: 250 nM | clearance [5]: 24 mL/min/kg | Activity (Melanocortin receptor 4 [10]): 99% | EC50 (Melanocortin receptor 4 [12]): 0.11 nM | bioavailability [16]: 20% | Activity (Homo sapiens): 49% | IC50 (Melanocortin receptor 4 [18]): 0.43 nM | Vd [19]: 9.7 L/kg | half-life [20]: 5.1 h
Compound: Cc1cc2c(cc1Cl)C1(CCN(C(=O)[C@@H]3CC(N(C)C4CCOCC4)C[C@H]3c3ccc(F)cc3F)CC1)C[C@@H]2C(C)(C)c1ncnn1C (stereo not given in full)
inhibition in vivo at 6 mg/kg (Mus musculus [1]): 56% | inhibition in vivo at 1 mg/kg (Mus musculus [21]): 32% | inhibition in vivo at 3 mg/kg (Mus musculus [2]): 31% | Activity (Mus musculus [22]): Active | Activity (Mus musculus [23]): Active | inhibition in vivo at 20 mg/kg (Mus musculus [7]): 18% | inhibition in vivo at 20 mg/kg (Mus musculus [8]): 39% | inhibition in vivo at 20 mg/kg (Mus musculus [9]): 17% | inhibition in vivo at 20 mg/kg (Mus musculus [11]): 35% | Activity (Mus musculus [24]): Active | inhibition in vivo at 3 mg/kg (Mus musculus [13]): 15% | inhibition in vivo at 6 mg/kg (Mus musculus [14]): 28% | inhibition in vivo at 10 mg/kg (Mus musculus [25]): 31% | inhibition in vivo at 10 mg/kg (Mus musculus [15]): 46% | inhibition in vivo at 10 mg/kg (Mus musculus [17]): 30% | inhibition in vivo at 3 mg/kg (Mus musculus [26]): 56%

Activity (Melanocortin receptor 4 [10]): 92% | Activity (Homo sapiens): 57%
Compound: Cc1cc2c(cc1Cl)C1(CCN(C(=O)[C@@H]3CN(C(C)(C)C)C[C@H]3c3ccc(F)cc3F)CC1)CC2C(C)(C)c1nnco1 (stereo in doubt; 5d2) [listing 2 of 2 here]

Activity (Melanocortin receptor 4 [10]): 117% | Activity (Homo sapiens): 10%
Compound: Cc1cc2c(cc1Cl)C1(CCN(C(=O)[C@@H]3CN(C(C)(C)C)C[C@H]3c3ccc(F)cc3F)CC1)CC2C(C)(C)c1nnco1 (stereo in doubt; 5d1) [listing 2 of 2 here]
